The values below come from patent US10640486B2, “Heteroarylcarboxamide derivatives as plasma kallikrein inhibitors” (Boehringer Ingelheim International GmbH, priority 2015, dated 2020).

This test deals with human Plasma Kallikrein (KLKB1) (Homo sapiens (Human), UniProt P03952). The test is described as follows: Inhibition of KLKB1 endpoint assay. It is filed as biochemical. As to conditions: fluorogenic substrate H-Pro-Phe-Arg-AMC, 1 hr at Room Temperature, read-out: IC50 measurements for the inhibition of human Plasma Kallikrein (KLKB1). On the procedure:
The ability of compounds of Formula I to inhibit plasma kallikrein (KLKB1), Factor XIIa (FXIIa), Factor XIa (FXIa), Factor Xa (FXa), Factor IIa (alpha-thrombin; FIIa), plasmin, trypsin, tissue kallikrein 1 (KLK1), Factor VIIa (FVIIa), or FVIIa complexed with Tissue Factor, phospholipids and CaCl2 (FVIIa/TF/PL/CaCl2) was determined using the following biochemical assays in assay buffer (100 mM Tris, 150 mM NaCL, adjusted to a pH of 7.8 with HCl, and containing 0.1% (w/v) BSA and 0.05% (v/v) Tween20) in the presence of 1% (v/v) DMSO:
Evaluation of the Inhibition of KLKB1 Using an Endpoint Assay
Subsequently, PPACK II (Calbiochem) was added as a stop solution to achieve a final concentration of 1 μM and fluorescence was measured using an Envision Reader (PerkinElmer) with the wavelength excitation setting of 355 nm and the wavelength emission setting of 460 nm.
The IC50 values were obtained with the aid of the inhibition of KLKB1 endpoint assay described above.

Chain of human Plasma Kallikrein (KLKB1) (P03952 391-638): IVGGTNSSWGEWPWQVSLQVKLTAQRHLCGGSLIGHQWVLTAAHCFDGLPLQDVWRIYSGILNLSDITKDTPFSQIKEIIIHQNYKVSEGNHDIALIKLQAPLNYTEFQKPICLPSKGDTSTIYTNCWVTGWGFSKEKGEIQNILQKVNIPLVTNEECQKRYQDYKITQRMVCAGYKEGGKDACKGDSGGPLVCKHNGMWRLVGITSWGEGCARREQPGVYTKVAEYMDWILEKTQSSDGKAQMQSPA
Chain of human Plasma Kallikrein (KLKB1) (P03952 20-390 partner): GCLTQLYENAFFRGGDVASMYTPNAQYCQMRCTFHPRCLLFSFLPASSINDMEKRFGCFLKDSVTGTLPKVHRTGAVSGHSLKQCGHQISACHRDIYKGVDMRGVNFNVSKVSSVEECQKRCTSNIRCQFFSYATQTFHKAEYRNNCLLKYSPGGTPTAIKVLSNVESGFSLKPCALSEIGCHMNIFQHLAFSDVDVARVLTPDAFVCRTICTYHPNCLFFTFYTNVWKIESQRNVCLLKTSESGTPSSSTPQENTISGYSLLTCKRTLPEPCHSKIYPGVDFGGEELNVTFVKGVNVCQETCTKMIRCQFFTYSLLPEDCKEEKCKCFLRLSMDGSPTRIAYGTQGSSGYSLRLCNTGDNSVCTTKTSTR

For `Nc1ccc2c(n1)CCC2NC(=O)c1cn(Cc2ccc(CN3CC4CCCN4C3=O)cc2)nn1` (stereo not drawn) [Example 61, 1-[4-(3-Oxo-tetrahydro-pyrrolo[1,2-c]imidazol-2-ylmethyl)-benzyl]-1H-[1,2,3]triazole-4-carboxylic acid (2-amino-6,7-dihydro-5H-[1]pyrindin-5-yl)-amide], the IC50 is 340 nM.

Regarding `Nc1ccc2c(n1)CCC2NC(=O)c1cn(Cc2ccc(CN3CC4CC4C3=O)cc2)nn1` (stereo not drawn) [Example 62, 1-[4-(2-Oxo-3-aza-bicyclo[3.1.0]hex-3-ylmethyl)-benzyl]-1H-[1,2,3]triazole-4-carboxylicacid (2-amino-6,7-dihydro-5H-[1]pyrindin-5-yl)-amide], the IC50 worked out at 410 nM.

Take `Nc1ccc2c(n1)CCC2NC(=O)c1cn(Cc2ccc(N3CC4CCCN4C3=O)cc2)nn1` (stereo not drawn) [Example 63, 1-[4-(3-Oxo-tetrahydro-pyrrolo[1,2-c]imidazol-2-yl)-benzyl]-1H-[1,2,3]triazole-4-carboxylic acid (2-amino-6,7-dihydro-5H-[1]pyrindin-5-yl)-amide]: the half-inhibitory concentration (IC50) was 3000 nM.

Regarding `Nc1ccc2c(n1)CCC2NC(=O)c1cn(Cc2ccc(CN3CCC4(CC4)C3=O)cc2)nn1` (stereo not drawn) [Example 64, 1-[4-(4-Oxo-5-aza-spiro[2.4]hept-5-ylmethyl)-benzyl]-1H-[1,2,3]triazole-4-carboxylic acid (2-amino-6,7-dihydro-5H-[1]pyrindin-5-yl)-amide], the IC50 amounted to 580 nM.

As for `Nc1ccc2c(n1)CCC2NC(=O)c1cn(Cc2ccc(N3CC4CC4C3=O)cc2)nn1` (stereo not drawn) [Example 65, 1-[4-(2-Oxo-3-aza-bicyclo[3.1.0]hex-3-yl)-benzyl]-1H-[1,2,3]triazole-4-carboxylic acid (2-amino-6,7-dihydro-5H-[1]pyrindin-5-yl)-amide], the IC50 turned out to be 1100 nM.

For the compound `Cc1cc(Cn2cc(C(=O)N[C@@H]3CCc4nc(N)ccc43)cn2)ccc1CN1CC2CC2C1=O` (stereo partly drawn) [Example 66, 1-[3-Methyl-4-(2-oxo-3-aza-bicyclo[3.1.0]hex-3-ylmethyl)-benzyl]-1H-pyrazole-4-carboxylic acid ((R)-2-amino-6,7-dihydro-5H-[1]pyrindin-5-yl)-amide], the IC50 stood at 18 nM.

Regarding `Cc1cc(CN2CC3CC3C2=O)ccc1Cn1cc(C(=O)N[C@@H]2CCc3nc(N)ccc32)cn1` (stereo partly drawn) [Example 69, 1-[2-Methyl-4-(2-oxo-3-aza-bicyclo[3.1.0]hex-3-ylmethyl)-benzyl]-1H-pyrazole-4-carboxylic acid ((R)-2-amino-6,7-dihydro-5H-[1]pyrindin-5-yl)-amide], the half-maximal inhibitory concentration (IC50) is 55 nM.

As to `Nc1ccc2c(n1)CCC2NC(=O)c1cn(Cc2cccc(N3CCN4CCCCC4C3=O)c2)nn1` (stereo not drawn) [Example 70, 1-[3-(1-Oxo-octahydro-pyrido[1,2-a]pyrazin-2-yl)-benzyl]-1H-[1,2,3]triazole-4-carboxylic acid (2-amino-6,7-dihydro-5H-[1]pyrindin-5-yl)-amide], the IC50 is > 10000 nM.

For the compound `CC(c1ccc(N2CC3CC3C2)nc1)n1cc(C(=O)N[C@@H]2CCc3c2ccnc3N)cn1` (stereo partly drawn) [Example 71, 1-{1-[6-(3-Aza-bicyclo[3.1.0]hex-3-yl)-pyridin-3-yl]-ethyl}-1H-pyrazole-4-carboxylic acid ((R)-1-amino-6,7-dihydro-5H-[2]pyrindin-5-yl)amide], the IC50 is 9 nM.

With `Nc1nccc2c1CC[C@H]2NC(=O)c1cnn(C2(c3ccc(N4CC5CC5C4)nc3)CC2)c1` (stereo partly drawn) [Example 74, 1-{1-[6-(3-Aza-bicyclo[3.1.0]hex-3-yl)-pyridin-3-yl]-cyclopropyl}-1H-pyrazole-4-carboxylic acid ((R)-1-amino-6,7-dihydro-5H-[2]pyrindin-5-yl)amide], the 50% inhibitory concentration (IC50) amounted to 41 nM.

Turning to `Nc1nccc2c1CC[C@H]2NC(=O)c1cnn(Cc2ccc(N3CC4CC4C3)nc2)c1` (stereo partly drawn) [Example 75, 1-[6-(3-Aza-bicyclo[3.1.0]hex-3-yl)-pyridin-3-ylmethyl]-1H-pyrazole-4-carboxylic acid ((R)-1-amino-6,7-dihydro-5H-[2]pyrindin-5-yl)amide], the IC50 amounted to 1 nM.

Consider `Nc1ccc2c(n1)CC[C@H]2NC(=O)c1cnn(Cc2ccc(N3CC4CC4C3)nc2)c1` (stereo partly drawn) [Example 76], for which the IC50 was determined as 8 nM.
